Data reported in paper PMC6814738, “Bacterial MgrB peptide activates chemoreceptor Fpr3 in mouse accessory olfactory system and drives avoidance behaviour” (Nature Communications, 2019).
Peptide text beside a SMILES is read from it. * marks the point of attachment. For = O=C*

Columns and labels:
[1] = system: vomeronasal sensory neurons (VSNs); experiment: VNO whole-mount en face confocal Ca2+ imaging of VSN dendritic knobs (Fig. 4, 5); format: cell-based, mouse; parameters: key to Ca2+ response of f-MKKFRW-responsive VSN knobs / Fpeak: normalised to knob resting fluorescence F0 before stimulation; conditions: for Fpeak / Ca2+ response of f-MKKFRW-responsive VSN knobs: Fig. 4h; for Fpeak: mean of individual knobs, n = 103 f-MKKFRW, 21 f-MKKFRWVVL, 68 MKKFRW, 26 f-MGFFIS, 63 PUM; for Ca2+ responses in VSNs, in words: VNE of adult B6 mice, f-MKKFRW 1 µM; for Ca2+ response of f-MKKFRW-responsive VSN knobs: adult B6 mice, mean ± s.d., N = 103 (f-MKKFRW), 21 (f-MKKFRWVVL), 68 (MKKFRW), 26 (f-MGFFIS), 63 (PUM)
Description: Mice (6–20 week old, either sex) were euthanized by CO2 inhalation according to institutional guidelines. After decapitation, the skin was removed from the skull, the mandible was cut off and the cranium was opened by a sagittal cut, 1–2-mm right-lateral in parallel to the midline. The palate and the right incisor were removed and the hemisected skull was mounted in low-melting agarose (4%). The bony capsule of the VNO was opened with fine forceps and the nonsensory epithelium was stripped off. Tissue and cell debris were gently washed off, and the en face preparation was superfused with physiological S1 solution (120 mM NaCl, 25 mM NaHCO3, 5 mM KCl, 1 mM MgSO4, 1 mM CaCl2, 10 mM glucose, 5 mM BES, pH 7.3) saturated with carbogen (95% O2, 5% CO2).
Loading of the VNE with Rhod-2/AM (5–15 µM, 1 h) was performed in S1 solution under carbogen atmosphere at RT. Images were taken with an upright confocal laser scanning microscope (Leica TCS SP5 II, 20x water immersion objective HCX APO L20x/1.0w) equipped with Ar and He/Ne lasers. GFP was excited at 488 nm, Venus at 514 nm and Rhod-2 at 543 nm. Emission was measured at 490–520 nm (GFP), 520–600 nm (Venus) and 560–680 nm (Rhod-2). To minimise interference between Venus and Rhod-2 fluorescence, images were taken sequentially (sample interval per image, 3–4 s). Peptide stimuli were applied to the VNE surface with a local perfusion system which, when positioned close to the anterior end of the VNO, produced a continuous solution stream from rostral to caudal along the VNO axis. Data analysis was performed with the open source software ImageJ (NIH). Ca^2+ responses of individual dendritic knobs were normalised to the knob resting fluorescence level obtained before stimulation (ratio Fx/F0, Fx = actual fluorescence; F0 = mean fluorescence of 3–5 images before ligand application). Mapping was performed by superimposing Ca^2+ peak images onto images showing intrinsic fluorescence for specific markers.
Predator urine mix was composed of urine from mountain lion, coyote, bobcat, fox and marten (at equal volume ratios), purchased from Predatorpee (USA) and Kieferle (Germany). The fMet peptides were as described above. Stimuli were applied in S2 solution (140 mM NaCl, 5 mM KCl, 10 mM HEPES, 1 mM CaCl2, 1 mM MgCl2, 10 mM glucose, pH 7.3 with NaOH).

mouse Fpr3 (Fpr-rs1) = biological target: T1, mouse Fpr3 (Fpr-rs1) (Mus musculus, UniProt O08790); experiment: Heterologous expression / high-throughput Ca2+ imaging agonist screen and sequence selectivity of Fpr3 (Fig. 1a, 2c-e, 2g, 2i); format: cell-based; conditions: for Ca2+ response, mean: mean of n = 3 experiments in triplicate (n = 5 for f-MKKFRW), Fpr3 + Gα16 HEK293T, Fluo-4/AM, buffer C1 pH 7.2, mock 0.059-0.060
T1 construct: expressed in transfected cells; host or cells: HEK293T (DSMZ # ACC-635), transient transfection with jetPEI
T1 sequence (O08790 1-351): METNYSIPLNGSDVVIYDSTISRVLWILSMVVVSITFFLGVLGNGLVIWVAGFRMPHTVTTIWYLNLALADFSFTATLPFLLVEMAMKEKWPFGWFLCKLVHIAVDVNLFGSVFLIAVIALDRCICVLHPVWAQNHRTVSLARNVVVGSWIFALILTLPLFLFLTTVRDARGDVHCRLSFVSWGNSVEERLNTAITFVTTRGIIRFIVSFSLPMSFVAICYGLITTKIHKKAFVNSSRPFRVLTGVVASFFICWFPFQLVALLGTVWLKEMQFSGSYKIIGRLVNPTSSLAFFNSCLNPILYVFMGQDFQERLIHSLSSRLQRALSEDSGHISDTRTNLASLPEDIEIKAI
Experimental: An Fpr3 gene subcloned from genomic DNA of C57BL/6J mice into pcDNA3.1 (Invitrogen) was used in heterologous experiments[21],[80]. HEK293T (DSMZ # ACC-635) cells were seeded at 20–30% confluence on poly-D-lysine-coated (10 µg/ml in PBS) black 96-well µCLEAR-Plates (Greiner Bio-One). Cells were transfected 24 h later using jetPEI™ (Polyplus-transfection SA) according to the manufacturer’s protocol for 96-well transfections. For Ca^2+ imaging experiments, 0.125 µg of DNA plasmid encoding Fpr3 were cotransfected with equal amounts of a plasmid encoding Gα16, a promiscuous G protein α-subunit. Ca^2+ signals to agonist stimulation were recorded 48 h post transfection using the Ca^2+ indicator dye Fluo-4/AM (Molecular Probes) and a fluorescence imaging plate reader (FLIPR) system (Molecular Devices). Cotransfection of a plasmid encoding Gα16 with an empty vector used to subclone Fpr3 gave no agonist-evoked Ca^2+ responses.
We used custom-made peptides with a length of 6–21 amino acids to screen for agonists. Sequences of fMet peptides were designed according to motifs present at the N-termini of 15,125 specific bacterial proteins as annotated in UniProt. Peptides were chemically synthesised, purified, and verified by mass spectroscopy (MALDI-TOF) by commercial suppliers. Purity of all peptides was >95%. Source, sequence and purity of each peptide are listed in Supplementary Data 1. Lyophilised peptides were routinely dissolved in the Ca^2+ imaging assay buffer C1 (130 mM NaCl, 10 mM HEPES, 5 mM KCl, 2 mM CaCl2, 5 mM glucose, pH 7.2) as 0.2–1 mM stock solutions and kept in small aliquots at −20 °C until use. […] The sequences of these peptides exist in proteins from the following bacterial strains[21]: Psychromonas ingrahamii that belongs to a marine ice water microbial community, Desulfotomaculum reducens that is found in deep freshwater lakes, and Pseudomonas grimontii, a plant pathogen. As mice are unlikely to encounter these strains in their natural habitat, these findings are probably not of biological relevance.

Compound | fraction of knobs responding ([1]; 1 µM, VNE, B6 mice) | Ca2+ responses in Venus+ (B2m) vs GFP+ (NP2) knobs, in words ([1]; 1 µM, heterozygous NP2∆ or B2m-Venus mice, Fig. 5g, h) | Fpeak [1] | Ca2+ responses in VSNs, in words [1] | Ca2+ response of f-MKKFRW-responsive VSN knobs [1] | detection threshold for evoked Ca2+ responses in VSNs ([1]; native VSNs of adult B6 mice, Rhod-2/AM, Fig. 4f) [µM] | activation of Fpr3 in agonist screen, in words (mouse Fpr3 (Fpr-rs1); 3 µM, Fpr3-transfected HEK293T, Gα16, Fluo-4/AM, FLIPR, Fig. 1a) | Ca2+ response, mean (mouse Fpr3 (Fpr-rs1); 3 µM, FLIPR) | Fpr3 activation by sequence variants, in words (mouse Fpr3 (Fpr-rs1); 30 µM (3 or 30 µM for elongated peptides), Fpr3-transfected HEK293T, Fig. 2c-e, i) | Ca2+ response, mean (mouse Fpr3 (Fpr-rs1); 30 µM, FLIPR) | specific Ca2+ response of Fpr3 in agonist screen, in words (mouse Fpr3 (Fpr-rs1); 3 or 30 µM, Fpr3-transfected HEK293T, panel of 41 peptides, Fig. 1a)
CSCC[C@H](NC=O)C(=O)N[C@@H](CCCCN)C(=O)N[C@@H](CCCCN)C(=O)N[C@@H](Cc1ccccc1)C(=O)N[C@@H](CCCNC(=N)N)C(=O)N[C@@H](Cc1c[nH]c2ccccc12)C(=O)O [f-MKKFRW] (For-MKKFRW-OH) | ~ 0.15% | Responses occurred in Venus+ but not in GFP+ knobs | 0.71 | robust, transient Ca^2+ elevations in a small subset of VSNs | 0.71 ± 0.44 | ≤ 0.1 | activated Fpr3-expressing HEK293T | 0.110 ∆F/F | Fpr3 recognises the core agonist f-MKKFRW | 0.423 ∆F/F | caused Fpr3 activation
f-MGFFIS [bacterial signal peptide fragment] |  |  | 0.00 | failed to evoke Ca^2+ responses in VSNs | 0.00 ± 0.00 |  |  | 0.055 ∆F/F |  | 0.048 ∆F/F | 
